Among the data in patent US5132302A, “Use of aromatic aminoalkoxy derivatives for the treatment of troubles of the cerebrovascular system” (priority 1989, dated 1992) are IC50 values, retold here.

For one assay, the system named is isolated balisar artery of a rabbit. Put plainly: test of contractions of the isolated balisar artery of a rabbit in a hypopotassic medium (contraction induced by KC1). The following applies: Oryctolagus cuniculus, read-out: IC50 (concentrations which reduce by 50% the amplitude of the contraction induced by KC1). Type of assay: cell-based. How it is done:
The protocol of this test is the following. The rabbit is anaesthetized with pentobarbital at a dose of 30 mg/kg then sacrificed by exsanguination and decapitated at the level of the third cervical vertebra. The balisar artery is removed (1.5 cm) between the vertebral arteries and the polygon of Willis. The balisar artery is then cut in a spiral at an angle of 45° . It is fixed by means of a curved needle between an L shaped glass carrier and a displacement sensor (Grass, type FT03). A mechanical tension of 500 mg is applied to the vessel before letting it reach its balance state.
For a period of an hour, the vessel is rinsed every twenty minutes until a stable level is obtained.
The tonic contraction consecutive to depolarization caused by KC1 is dependent on the calcic movements for it is abolished by the suppression of calcium in the survival medium.
For the compound `COc1cc(F)c(OC)c(OCCN2CCCCC2)c1C(O)CCc1ccc(O)cc1` (stereo not shown) [compound 72], the IC50 was determined as 3 nM.

The assay is the same for the next values; noted with them: Oryctolagus cuniculus; isolated rabbit balisar artery; KC1 at 35 mmoles; read-out: IC50 (concentrations which reduce by 50% the amplitude of the contraction induced by KC1).
In the case of `COc1ccc(OC)c(C(O)CCc2ccccc2)c1OCCN1CCCCC1` (stereo not shown) [compound 3], the IC50 came to 400 nM.
For `COc1ccc(OC)c(C(O)CCc2ccc(O)cc2)c1OCCN1CCCCC1` (stereo not shown) [compound 10], the IC50 turned out to be 26 nM.
On the same count and under the same terms, as for `COc1cc(Cl)c(OC)c(OCCN2CCCCC2)c1C(O)CCc1ccc(O)cc1` (stereo not shown) [compound 69], the figure is 2.3 nM.
On the same count and under the same terms, as for `CCN(CC)CCOc1c(OC)c(Cl)cc(OC)c1C(O)CCc1ccc(O)cc1` (stereo not shown) [compound 70], the figure is 7.2 nM.
The same measure, in the same setting: the value for `COc1cc(Cl)c(OC)c(OCCN(C(C)C)C(C)C)c1C(O)CCc1ccc(O)cc1` (stereo not shown) [compound 71] was 9.8 nM.
Regarding `COc1cc([N+](=O)[O-])c(OC)c(C(O)CCc2ccc(O)cc2)c1OCCN1CCCCC1` (stereo not shown) [compound 74], the IC50 stood at 1.4 nM.
